Results from ChEMBL document CHEMBL5352385, “Marine natural products and their synthetic analogs as promising antibiofilm agents for antibiotics discovery and development” (Eur J Med Chem, 2022).
One block for each molecule: values may come before it.

Assays:
Streptococcus mutans = assay: Antibiofilm activity against Streptococcus mutans UA159 assessed as inhibition of biofilm formation; format: functional, organism-based
Marinobacter nauticus = assay: Antibiofilm activity against Marinobacter hydrocarbonoclasticus at 31.25 ug/ml incubated for 24 hrs by crystal violet staining based analysis relative to control; format: functional; conditions: dose 31.25 µg/ml
[1] = test system: Pseudooceanicola batsensis; assay: Antibiofilm activity against Pseudooceanicola-batsensis at 31.25 ug/ml incubated for 48 hrs by crystal violet staining based analysis relative to control; format: functional; conditions: dose 31.25 µg/ml
Micrococcus luteus = assay: Antibiofilm activity against Micrococcus luteus at 31.25 ug/ml incubated for 48 hrs by crystal violet staining based analysis relative to control; format: functional; conditions: dose 31.25 µg/ml
Staphylococcus aureus [2] = assay: Antibiofilm activity against methicillin-resistant Staphylococcus aureus CH 10850 at 50 ug/ml relative to control; format: functional; conditions: dose 50 µg/ml
Staphylococcus aureus [3] = assay: Antibiofilm activity against Staphylococcus aureus ATCC 25923 after 24 hrs by crystal violet staining based assay; format: functional, organism-based; conditions: ATCC 25923, 24 h
Staphylococcus aureus [4] = assay: Antibiofilm activity against Staphylococcus aureus ATCC 6538 after 24 hrs by crystal violet staining based assay; format: functional, organism-based; conditions: ATCC 6538, 24 h
Pseudomonas aeruginosa = assay: Antibiofilm activity against Pseudomonas aeruginosa ATCC 15442 after 24 hrs by crystal violet staining based assay; format: functional, organism-based; conditions: ATCC 15442, 24 h
Staphylococcus aureus [5] = assay: Antibiofilm activity against Staphylococcus aureus ATCC 6538 assessed as reduction in biofilm formation at 50 ug/ml measured after 24 hrs by crystal violet staining based analysis relative to control; format: functional; design: scale not given: the % may be the effect or the level left; conditions: dose 50 µg/ml
Candida albicans = assay: Antibiofilm activity against Candida albicans assessed as reduction in biofilm formation at 200 ug/ml measured after 48 hrs by crystal violet staining based analysis relative to control; format: functional; design: scale not given: the % may be the effect or the level left; conditions: dose 200 µg/ml

IC50 (Streptococcus mutans): 2.5 µM
Structure (SMILES): Cc1ccc(S(=O)(=O)n2cc3c4c2C(=O)C(NCc2ccc(Cl)cc2)=CC4=NCC3)cc1

Structure (SMILES): C=C1CCC(Br)C(C)(C)C1C[C@@]12OC(C)(C)[C@H](Cl)C=C1C(=O)c1c(O)cc(O)cc1C2=O (stereo partly drawn)
Activity (Marinobacter nauticus): 59.3%
Activity [1]: 26.2%
Activity (Micrococcus luteus): 100%

IC50 (Streptococcus mutans): 2 µM
Structure (SMILES): COc1ccc(CCNC2=CC3=NCCc4cn(S(=O)(=O)c5ccc(C)cc5)c(c43)C2=O)cc1

Structure (SMILES): COC(=O)[C@H](C)c1c([C@@]2(C)CCCC(C)(C)C2)ccc2c1C(=O)OC2
Activity (Staphylococcus aureus [2]): 99.9%

IC50 (Staphylococcus aureus [3]): 0.4 µM
IC50 (Staphylococcus aureus [4]): 51.6 µM
Structure (SMILES): COCCn1cc(-c2nc(-c3cn(C)c4ncccc34)cs2)c2cc(F)ccc21

Structure (SMILES): CC(C)=CCC/C(C)=C\C[C@@]12OC(C)(C)[C@H](Cl)C[C@]1(Cl)C(=O)c1c(cc(O)c(C)c1O)C2=O
Activity (Marinobacter nauticus): 28%

IC50 (Pseudomonas aeruginosa): 9.7 µM
IC50 (Staphylococcus aureus [3]): 1.7 µM
IC50 (Staphylococcus aureus [4]): 20.7 µM
Structure (SMILES): COCCn1cc(-c2nc(-c3c[nH]c4ncccc34)cs2)c2cc(Br)ccc21

Structure (SMILES): CC(C)=CCC/C(C)=C\C[C@@]12OC(C)(C)[C@H](Cl)C=C1C(=O)c1c(cc(O)c(C)c1O)C2=O
Activity (Marinobacter nauticus): 23.4%

Structure (SMILES): C=C1CCC(Br)C(C)(C)C1C[C@@]12OC(C)(C)[C@H](Cl)C[C@]1(Cl)C(=O)c1c(O)cc(O)cc1C2=O (stereo partly drawn)
Activity (Marinobacter nauticus): 59.3%
Activity [1]: 26.2%
Activity (Micrococcus luteus): 100%

Structure (SMILES): C=C1CCC(Cl)C(C)(C)C1C[C@@]12OC(C)(C)[C@H](Cl)C=C1C(=O)c1c(cc(O)c(C)c1O)C2=O (stereo partly drawn)
Activity (Marinobacter nauticus): 33.7%

Structure (SMILES): C=C(C)C(=O)CC/C(C)=C\C[C@@]12OC(C)(C)[C@H](Cl)C=C1C(=O)c1c(O)cc(O)cc1C2=O
Activity (Marinobacter nauticus): 43.4%
Activity (Micrococcus luteus): 87.3%

IC50 (Staphylococcus aureus [3]): 8.4 µM
IC50 (Staphylococcus aureus [4]): 11.3 µM
Structure (SMILES): CC(C)(C)OC(=O)NCCn1cc(-c2nc(-c3c[nH]c4ncccc34)cs2)c2ccccc21

Structure (SMILES): COc1cc(-c2ccccn2)nc2cnsc12
Activity (Staphylococcus aureus [5]): >50%

Structure (SMILES): COc1cc(-c2ccccn2)nc(/C=N/O)c1[S+](C)[O-] (stereo not drawn)
Activity (Staphylococcus aureus [5]): >80%

Structure (SMILES): C=C1CCC(Cl)C(C)(C)C1C[C@@]12OC(C)(C)[C@H](Cl)C[C@]1(Cl)C(=O)c1c(cc(O)c(C)c1O)C2=O (stereo partly drawn)
Activity (Marinobacter nauticus): 48.2%

IC50 (Pseudomonas aeruginosa): 9.7 µM
IC50 (Staphylococcus aureus [3]): 2.03 µM
IC50 (Staphylococcus aureus [4]): 23.9 µM
Structure (SMILES): COCCn1cc(-c2nc(-c3cn(C)c4ncccc34)cs2)c2cc(Br)ccc21

IC50 (Staphylococcus aureus [3]): 3.7 µM
IC50 (Staphylococcus aureus [4]): 14.5 µM
Structure (SMILES): COCCn1cc(-c2csc(-c3cn(C(=O)OC(C)(C)C)c4ccccc34)n2)c2cccnc21

Structure (SMILES): C/C=C1/C(=O)/C(=C(/O)C(C)CCCCCC)C(=O)N1C (stereo not drawn) [PENICILLENOL B1]
Activity (Candida albicans): 80%

IC50 (Streptococcus mutans): 0.4 µM
Structure (SMILES): Cc1ccc(S(=O)(=O)n2cc3c4c2C(=O)C(NCCc2ccc5c(c2)COC5)=CC4=NCC3)cc1

Structure (SMILES): Cc1c(O)cc2c(c1O)C(=O)[C@@]1(Cl)C[C@@H](Cl)C(C)(C)O[C@@]1(CC1C(C)(C)C(Cl)CC[C@@]1(C)O)C2=O (stereo partly drawn)
Activity (Marinobacter nauticus): 25.1%

Structure (SMILES): C=C(C)C(=O)CC/C(C)=C/C[C@@]12OC(C)(C)[C@H](Cl)C[C@]1(Cl)C(=O)c1c(O)cc(O)cc1C2=O
Activity (Marinobacter nauticus): 43.4%
Activity (Micrococcus luteus): 87.3%

Structure (SMILES): COC(=O)[C@H](C)c1c([C@@]2(C)CCCC(C)(C)C2)ccc2c1[C@H](O)OC2=O
Activity (Staphylococcus aureus [2]): 97.8%

Structure (SMILES): C=C(C)C(O)CC/C(C)=C/C[C@@]12OC(C)(C)[C@H](Cl)C[C@]1(Cl)C(=O)c1c(O)cc(O)cc1C2=O (stereo partly drawn)
Activity (Marinobacter nauticus): 56.9%
Activity [1]: 13.4%
Activity (Micrococcus luteus): 97%

Structure (SMILES): CC(C)=CCC/C(C)=C\C[C@@]12OC(C)(C)[C@H](Cl)C[C@]1(Cl)C(=O)c1c(O)cc(O)cc1C2=O
Activity [1]: 87.2%
Activity (Micrococcus luteus): 88.6%

IC50 (Pseudomonas aeruginosa): 9.9 µM
IC50 (Staphylococcus aureus [3]): 1.27 µM
IC50 (Staphylococcus aureus [4]): 13.2 µM
Structure (SMILES): Cn1cc(-c2csc(-c3cn(CCN)c4ccc(F)cc34)n2)c2cccnc21

Structure (SMILES): CCCCCCC(C)/C(O)=C1\C(=O)[C@H](C(C)O)N(C)C1=O (stereo partly drawn)
Activity (Candida albicans): 80%

Structure (SMILES): COc1cc(-c2ccccn2)nc(C#N)c1SC
Activity (Staphylococcus aureus [5]): >50%

Structure (SMILES): C/C(=C/C[C@@]12OC(C)(C)[C@H](Cl)C[C@]1(Cl)C(=O)c1c(O)cc(O)cc1C2=O)CC/C=C(\C)CO
Activity (Marinobacter nauticus): 60.2%

IC50 (Streptococcus mutans): 2.6 µM
Structure (SMILES): COc1ccc(CNC2=CC3=NCCc4cn(S(=O)(=O)c5ccc(C)cc5)c(c43)C2=O)cc1OC

Structure (SMILES): C/C=C/CCCC(C)/C(O)=C1\C(=O)[C@@H](C(C)O)N(C)C1=O (stereo partly drawn)
Activity (Candida albicans): 80%
